Test results from patent publication US12060329B1, “6′-(2-bromophenyl)-2′-ethoxy-3,4′-bipyridine-3′-carbonitrile as an antioxidant compound” (KING FAISAL UNIVERSITY, priority 2023, dated 2024).

Test: DPPH radical scavenging antioxidant test
Format: biochemical
Conditions: 517 nm; for Inhibition (radical scavenging inhibition): compound 3 μM in ethanol, 0.2 mL DPPH (0.75 mM), 30 minutes in the dark
Protocol: The antioxidant activity of 6′-(2-bromophenyl)-2′-ethoxy-3,4′-bipyridine-3′-carbonitrile was investigated by 2,2-diphenyl-1-picrylhydrazyl (DPPH) in vitro tests that employ vitamin C as the positive control.
The antioxidant properties of the 6′-(2-bromophenyl)-2′-ethoxy-3,4′-bipyridine-3′-carbonitrile compound were studied by adding 0.2 mL DPPH (0.75 mM)) to 6′-(2-bromophenyl)-2′-ethoxy-3,4′-bipyridine-3′-carbonitrile (3 μM) (4) in ethanol. After 30 minutes of incubation in the dark, the absorbance was read against a blank at 517 nm. Ascorbic acid (vitamin C) was used as standard antioxidants (positive control). A blank sample was prepared by 0.2 mL of DPPH in 3 mL ethanol. A negative control sample was run using ethanol instead of the sample. The radical scavenging inhibition was calculated using the following equation: […]
The antioxidant activity for the synthesized compound is listed in Table 1, using Vitamin C as a reference.

| Structure (SMILES) | Inhibition (radical scavenging inhibition) | antioxidant potential to vanish the DPPH radical colors (in words) (DPPH in vitro test, vitamin C as positive control) |
| --- | --- | --- |
| O=C1O[C@H]([C@@H](O)CO)C(O)=C1O [vit c, Ascorbic acid, reference compound] | 74% | – |
| CCOc1nc(-c2ccccc2Br)cc(-c2cccnc2)c1C#N [Product 4, 6′-(2-bromophenyl)-2′-ethoxy-3,4′-bipyridine-3′-carbonitrile] | 50% | high potential as an antioxidant compared to vitamin C |
